Values of other authors in patent US9120722B1, “Optically active valine complex and a method for producing the same” (Wellman Biosciences Co. Ltd., priority 2014, dated 2015).

Conditions: for Solubility in water of the sulfonic acid salt with L-valine: salts with L-valine, prior art U.S. Pat. No. 5,689,001 and No. 6,072,083

Solubility (aqueous solution) (room temperature, stated as known)	Solubility in water of the sulfonic acid salt with L-valine	Structure (SMILES)
8-10%	–	CC(C)[C@@H](N)C(=O)O [D-valine]
–	7.8%	CC(C)c1ccc(S(=O)(=O)O)cc1 [p-isopropylbenzene sulfonic acid]
–	14.5%	CCc1ccc(S(=O)(=O)O)cc1 [p-ethylbenzene sulfonic acid]
